Laboratory results taken from PMC11084299 (International Journal of Molecular Sciences, 2024).

How the values were obtained:
[1] = biological target: T1, Plasmodium falciparum tyrosyl-tRNA synthetase (PfTyrRS) (Plasmodium falciparum, UniProt Q8IAR7); assay: bio-layer interferometry (Ni-NTA biosensors, immobilized PfTyrRS); supported by ATP hydrolysis inhibition (IC50 […]), TSA and limited proteolysis; type: binding
T1 construct: gene PF3D7_0807900; recombinant PfTyrRS (PF3D7-0807900), C-terminal 10 × His tag, ~47 kDa, homodimer

[2] = biological target: T2, Homo sapiens tyrosyl-tRNA synthetase (HsTyrRS) (Homo sapiens, UniProt P54577); assay: ATP hydrolysis (consumption) assay, luciferin/luciferase luminescence, purified enzyme; type: biochemical
T2 construct: gene YARS1; recombinant HsTyrRS, C-terminal 10 × His tag, ~64 kDa, homodimer
T2 sequence (P54577 1-528): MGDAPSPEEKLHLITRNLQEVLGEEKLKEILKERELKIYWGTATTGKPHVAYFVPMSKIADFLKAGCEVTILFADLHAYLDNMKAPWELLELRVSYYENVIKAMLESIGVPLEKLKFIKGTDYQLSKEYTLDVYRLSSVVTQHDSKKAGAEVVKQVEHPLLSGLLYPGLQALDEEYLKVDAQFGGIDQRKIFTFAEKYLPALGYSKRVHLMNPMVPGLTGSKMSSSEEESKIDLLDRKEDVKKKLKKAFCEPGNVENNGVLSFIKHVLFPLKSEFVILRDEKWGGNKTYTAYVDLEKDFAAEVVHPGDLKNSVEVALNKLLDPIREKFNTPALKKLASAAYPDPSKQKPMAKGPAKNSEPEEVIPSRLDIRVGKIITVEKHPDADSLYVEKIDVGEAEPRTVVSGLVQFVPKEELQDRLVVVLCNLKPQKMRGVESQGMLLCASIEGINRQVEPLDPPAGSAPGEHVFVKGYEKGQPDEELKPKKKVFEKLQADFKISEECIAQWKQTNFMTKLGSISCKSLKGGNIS

[3] = biological target: the molecule itself; assay: SEC; Superdex 200 Increase 10/300 GL, final purification step; oligomeric state from the apparent molecular weight at the elution volume

Molecule `O=C(/C=C/c1ccc(O)c(O)c1)c1ccc(O)c(O)c1O` [okanin] has a Kd [1] of 0.29 µM and an IC50 [2] of 38.2 ± 2.71 µM.

B1: Plasmodium falciparum tyrosyl-tRNA synthetase (enzyme, UniProt Q8IAR7 1-373, looked up)
chain: METTDTKREEQEIEEKKAQEESKIEDVDKILNDILSISSECIQPDELRVKLLLKRKLICYDGFEPSGRMHIAQGLLKSIIVNKLTSNGCTFIFWIADWFAHLNNKMSGDLKKIKKVGSYFIEVWKSCGMNMENVQFLWASEEINKKPNEYWSLVLDISRSFNINRMKRCLKIMGRSEGEENYCSQILYPCMQCADIFFLNVDICQLGIDQRKVNMLAREYCDIKKIKKKPVILSHGMLPGLLEGQEKMSKSDENSAIFMDDSESDVNRKIKKAYCPPNVIENNPIYAYAKSIIFPSYNEFNLVRKEKNGGDKTYYTLQELEHDYVNGFIHPLDLKDNVAMYINKLLQPVRDHFQNNIEAKNLLNEIKKYKVTK
notes: Tyrosyl-tRNA synthetase of Plasmodium falciparum, gene ID PF3D7-0807900, synthesized gene in pET28a; about 47 kDa on SDS-PAGE; No tag cleavage is described; The same protein was later captured on Ni-NTA biosensors for BLI with okanin, so the His tag was probably still present in the gel filtration; also called PfTyrRS; PfTysRS; source: E. coli BL21, purified (Ni-NTA, HiTrap Q HP, Superdex 200 …)
For B1, the “stoichiometry N” value [3] was 2.

B2: Homo sapiens tyrosyl-tRNA synthetase (enzyme, UniProt P54577 1-528, looked up)
chain: T2 sequence (P54577 1-528)
notes: Tyrosyl-tRNA synthetase, human, in pET28a; about 64 kDa on SDS-PAGE; No tag cleavage is described; also called HsTyrRS; HsTysRS; source: E. coli, purified (Ni column, ion exchange Q HP, size exclusion chromatography)
B2 was tested, and the “stoichiometry N” value [3] was 2.
